Results taken from US20090220425A1, “Method to Quantitatively Measure Effect of Psychotropic Drugs on Sensory Discrimination” (DREXEL UNIVERSITY, priority 2006, published 2009).

Assays:
[1] = tested on: ensemble of neurons in the deep layers of the forelimb rat primary somatosensory cortex; test: PSTH-based classification of stimulus location from single-trial responses of neuron ensembles (information representation); format: in vivo; conditions: for classification performance (bits of information) after drug compared to saline: one ensemble of neurons, touch-stimuli to contralateral body, every bin size tested, FIGS. 1A and 1B
[2] = tested on: neurons of the infragranular layer of the primary somatosensory cortex of the rat; test: Classical neurophysiological measures of somatosensory responses (sensory mapping, magnitude and latency of neural responses to touch stimuli) before and after drug; format: in vivo

Row | SMILES | classification performance (bits of information) after drug compared to saline [1] | effectiveness of the low dose ([2]; MCPP 0.075 (low) mg/kg, intraperitoneal (IP), dissolved in saline) | amount of information represented by the ensemble after administration ([1]; binsize from 40 ms (spike-count) to 1 ms (spike-timing), single-trial discrimination of stimulus location) | effectiveness of the medium dose ([2]; FLU 10 (medium) mg/kg, IP injection, dissolved in saline) | number of spikes per stimulus after drug ([2]; fluoxetine 10 mg/kg, two rats, 0.67 spikes per stimulus before drug, significant increase, p<0.001) [spikes per stimulus] | latency of the response after drug ([2]; fluoxetine 10 mg/kg, two rats, 20 msec before drug, decrease did not reach significance (p=0.11)) [ms]
1 | Clc1cccc(N2CCNCC2)c1 [MCPP, meta-chlorophenylpiperazine] | increase for every bin size tested | effective | – | – | – | –
2 | CNCCC(Oc1ccc(C(F)(F)F)cc1)c1ccccc1 (stereo not shown) [fluoxetine] | increased for every bin size tested | – | greater | effective | 1.05 | 17.5
